Type in all cases: cell-based
For experiment [1], the system named is Staphylococcus aureus UC ® No. 9213. In words: In vitro antimicrobial activity, MIC by agar dilution, S. aureus 9213. Conditions: UC9213, Mueller Hinton agar + 1% Supplement C, 35° C., 18 hours, read-out: Minimum inhibitory concentration (MIC), S. a. 9213. Here is the method:
(§1) Antimicrobial activity was tested in vitro using the procedure described in National Committee for Clinical Laboratory Standards. Methods for dilution antimicrobial susceptibility tests for bacteria that grow aerobically--third edition; Approved Standard. NCCLS Document M7-A3. Villanova, Pa.: NCCLS; 1993. Minimum inhibitory concentration (MIC) values were determined by an agar dilution method (1) in which the test medium was Mueller Hinton agar (MHA; Difco Laboratories, Detroit, Mich.) supplemented with 1% Supplement C (Difco). Serial two-fold dilutions of each compound were prepared using 1.0 ml volumes of sterile distilled water. To each 1.0 ml aliquot was added 9.0 ml of molten agar medium. The drug-supplemented agar was mixed, poured into 15×100 mm petri dishes, and allowed to solidify and dry at room temperature prior to inoculation. The test cultures were grown aerobically overnight at 35° C. on MHA; streptococcal strains were grown on Trypticase Soy Blood Agar Base EH (Difco) supplemented with 5% defibrinated sheep blood (BBL, Becton Dickinson Company, Cockeysville, Md.). Colonies were harvested with a sterile swab, and cell suspensions were prepared in Trypticase Soy Broth (TSB; Becton Dickinson Company) to equal the turbidity of a 0.5 McFarland standard. A 1:19 dilution of the suspension was made in TSB; this diluted suspension constituted the inoculum for the assay. The plates containing the drug-supplemented agar were inoculated with a 0.001 ml drop of the cell suspensions using a Steers replicator (Melrose Machine Shop, Woodlyn, Pa.), yielding approximately 10^4 -10^5 cells per spot. The plates were incubated aerobically at 35° C. for 18 hours and the MIC was read as the lowest concentration of drug that inhibited visible growth of the organism. The growth of a single colony was considered to be negative.

Experiment [2] deals with Staphylococcus aureus UC ® No. 6685. In words: In vitro antimicrobial activity, MIC by agar dilution, S. aureus 6685. Particulars: UC6685, Mueller Hinton agar + 1% Supplement C, 35° C., 18 hours, read-out: Minimum inhibitory concentration (MIC), S. a. 6685. How it is done: as §1
The subject of experiment [3] is Streptococcus Pneumoniae UC ® No. 9912. In words: In vitro antimicrobial activity, MIC by agar dilution, S. pneumoniae 9912. Conditions: UC9912, Mueller Hinton agar + 1% Supplement C, 35° C., 18 hours, read-out: Minimum inhibitory concentration (MIC), S. p. 9912. How it is done:
as §1
(In agar dilution the substance is mixed into plates at graded concentrations.)

Drawing on patent US5922707A, “Oxazolidinone antibacterial agent with tricyclic substituents” (Pharmacia & Upjohn Company, priority 1997, dated 1999), this text covers MIC for twelve compounds.

For the compound `CC(=O)NC[C@H]1CN(c2ccc3c(c2)OC[C@H]2CN(C(=O)OCc4ccccc4)CCN32)C(=O)O1` [Example 7a, (R)-8-[5-(S)-[(acetylamino)methyl]-2-oxo-3-oxazolidinyl]-1,2,4a, 5-tetrahydropyrazino[2,1-c][1,4]benzoxazin-3(4 H)-carboxylic acid phenylmethyl ester], the MIC was 8 µg/mL in experiment [1], 4 µg/mL in experiment [2] and 1 µg/mL in experiment [3].
Consider `CC(=O)NC[C@H]1CN(c2ccc3c(c2)OCC2CN(C(=O)OCc4ccccc4)CCN32)C(=O)O1` (stereo partly drawn) [Example 1, 8-[5-(S)-[(acetylamino)methyl]-2-oxo-3-oxazolidinyl]-1,2,4a, 5-tetrahydropyrazino[2,1-c] [1, 4]benzoxazine-3(4 H)-carboxylic acid phenylmethyl ester], for which the MIC in experiment [1] is 8 µg/mL; in experiment [2], 4 µg/mL; in experiment [3] it was 1 µg/mL.
In the case of `CC(=O)NC[C@H]1CN(c2ccc3c(c2)OCC2CN(C(=O)CO)CCN32)C(=O)O1` (stereo partly drawn) [Example 4], the MIC in experiment [1] was 8 µg/mL; in experiment [2], 8 µg/mL; in experiment [3], 1 µg/mL.
For the compound `CC(=O)NC[C@H]1CN(c2ccc3c(c2)OC[C@H]2CCCCN32)C(=O)O1` [Example 9a, (R)-N-[[[1,2,3,4,4a, 5-hexahydropyridino[2,1-c][1, 4]benzoxazin-8-yl]-2-oxo-5-(S)-oxazolidinyl]methyl]-acetamide], the MIC in experiment [1] amounted to 16 µg/mL; in experiment [2], 8 µg/mL; in experiment [3] it was 2 µg/mL.
Turning to `CC(=O)NC[C@H]1CN(c2ccc3c(c2)OCC2CN(C(=O)c4cc5ccccc5[nH]4)CCN32)C(=O)O1` (stereo partly drawn) [Example 6, N-[[3-[1,2,3,4,4a, 5-hexahydro-3-(1 H-indol-2-ylcarbonyl)pyrazino[2,1-c] [1, 4]benzoxazin-8-yl]-2-oxo-5-(S)-oxazolidinyl]methyl]-acetamide], the MIC turned out to be 8 µg/mL in experiment [1], 4 µg/mL in experiment [2] and 1 µg/mL in experiment [3].
Take `COC(=O)N1CCN2c3ccc(N4C[C@H](CNC(C)=O)OC4=O)cc3OC[C@@H]2C1` [Example 8b, (S)-8-[5-(S)-[(acetylamino)methyl]-2-oxo-3-oxazolidinyl]-1,2,4a, 5-tetrahydropyrazino[2,1-c] [1, 4]benzoxazine-3(4 H)-carboxylic acid methyl ester]: the values for the MIC in experiment [1], in experiment [2] and in experiment [3] were 8 µg/mL, 8 µg/mL and 2 µg/mL, respectively.
For the compound `CC(=O)NC[C@H]1CN(c2ccc3c(c2)OC[C@@H]2CN(C(=O)OCc4ccccc4)CCN32)C(=O)O1` [Example 7b, (S)-8-[5-(S)-[(acetylamino)methyl]-2-oxo-3-oxazolidinyl]-1,2,4a, 5-tetrahydropyrazino[2,1-c][1,4]benzoxazin-3(4H)-carboxylic acid phenylmethyl ester], the MIC in experiment [1] turned out to be 8 µg/mL; in experiment [2], 8 µg/mL; in experiment [3], 2 µg/mL.
Regarding `COC(=O)N1CCN2c3ccc(N4C[C@H](CNC(C)=O)OC4=O)cc3OC[C@H]2C1` [Example 8a, (R)-8-[5-(S)-[(acetylamino)methyl]-2-oxo-3-oxazolidinyl]-1,2,4a, 5-tetrahydropyrazino[2,1-c] [1, 4]benzoxazine-3(4 H)-carboxylic acid methyl ester], the MIC in experiment [1] amounted to 4 µg/mL; in experiment [2], 4 µg/mL; in experiment [3], 0.5 µg/mL.
For the compound `CC(=O)NC[C@H]1CN(c2ccc3c(c2)OCC2CN(C(=O)c4ccno4)CCN32)C(=O)O1` (stereo partly drawn) [Example 5, N-[[3-[1,2,3,4,4a, 5-Hexahydro-3-(5-isoxazolylcarbonyl)pyrazino[2,1-c] [1, 4]benzoxazin-8-yl]-2-oxo-5-(S)-oxazolidinyl]methyl]-acetamide], the MIC in experiment [1] was 4 µg/mL; in experiment [2] it was 2 µg/mL; in experiment [3], less than 0.5 µg/mL.
The like results for `COC(=O)N1CCN2c3ccc(N4C[C@H](CNC(C)=O)OC4=O)cc3OCC2C1` (stereo partly drawn) [Example 3, 8-[5-(S)-[(Acetylamino)methyl]-2-oxo-3-oxazolidinyl]-1,2,4a, 5-tetrahydropyrazino[2,1-c] [1, 4]benzoxazine-3(4 H)-carboxylic acid methyl ester] were, in that order, 8 µg/mL, 4 µg/mL and 1 µg/mL.
Consider `CC(=O)NC[C@H]1CN(c2ccc3c(c2)OC[C@@H]2CCCCN32)C(=O)O1` [Example 9b, (S)-N-[[[1,2,3,4,4a, 5-hexahydropyridino[2,1-c][1, 4]benzoxazin-8-yl]-2-oxo-5-(S)-oxazolidinyl]methyl]-acetamide], for which the results for the MIC in experiment [1], in experiment [2] and in experiment [3] were 8 µg/mL, 4 µg/mL and 2 µg/mL, respectively.
On to `CC(=O)NC[C@H]1CN(c2ccc3c(c2)OCC2CN(C(=O)COCc4ccccc4)CCN32)C(=O)O1` (stereo partly drawn) [Example 2, N-[[3-[1,2,3,4,4a, 5-Hexahydro-3-[(phenylmethoxy)acetyl]pyrazino[2,1-c] [1, 4]benzoxazin-8-yl]-2-oxo-5-(S)-oxazolidinyl]methyl]-acetamide], for which the results for the MIC in experiment [1], in experiment [2] and in experiment [3] were 8 µg/mL, 8 µg/mL and 2 µg/mL, respectively.
